The target in experiment [1] is SARS-CoV-2 Spike: ACE2 interaction (UniProt P0DTC2+Q9BYF1). The experiment in a line: biochemical. Type of experiment: binding.
In experiment [2] the target is ACE2:SARS-CoV-2 Spike interaction (UniProt P0DTC2+Q9BYF1). In words: biochemical. Type of experiment: binding.
[3] abbreviates: IC50, block of SARS-CoV-2 Spike: ACE2 interaction.
[4] abbreviates: IC50, block of ACE2:SARS-CoV-2 Spike interaction.
[5] abbreviates: read-out: SARS-CoV-2 Spike:ACE2 IC50.
The mark [6] stands for this setting: read-out: ACE2:SARS-CoV-2 Spike IC50.

The values below come from patent US20230304010A1, “COMPOSITIONS AND METHODS FOR TREATING VIRAL INFECTIONS” (priority 2020, published 2023).

As a reminder, the IC50 is the concentration that gives 50% inhibition.

Where “and” joins values, the source holds several entries; their conditions need not be identical. Identical values can stand only once. Like-named read-outs stand apart in the source and are kept apart here. Ends that are not written are not given here. Peptide text beside a SMILES is read from it.

Sequence of ACE2:SARS-CoV-2 Spike interaction (Q9BYF1 18-740, one chain of several): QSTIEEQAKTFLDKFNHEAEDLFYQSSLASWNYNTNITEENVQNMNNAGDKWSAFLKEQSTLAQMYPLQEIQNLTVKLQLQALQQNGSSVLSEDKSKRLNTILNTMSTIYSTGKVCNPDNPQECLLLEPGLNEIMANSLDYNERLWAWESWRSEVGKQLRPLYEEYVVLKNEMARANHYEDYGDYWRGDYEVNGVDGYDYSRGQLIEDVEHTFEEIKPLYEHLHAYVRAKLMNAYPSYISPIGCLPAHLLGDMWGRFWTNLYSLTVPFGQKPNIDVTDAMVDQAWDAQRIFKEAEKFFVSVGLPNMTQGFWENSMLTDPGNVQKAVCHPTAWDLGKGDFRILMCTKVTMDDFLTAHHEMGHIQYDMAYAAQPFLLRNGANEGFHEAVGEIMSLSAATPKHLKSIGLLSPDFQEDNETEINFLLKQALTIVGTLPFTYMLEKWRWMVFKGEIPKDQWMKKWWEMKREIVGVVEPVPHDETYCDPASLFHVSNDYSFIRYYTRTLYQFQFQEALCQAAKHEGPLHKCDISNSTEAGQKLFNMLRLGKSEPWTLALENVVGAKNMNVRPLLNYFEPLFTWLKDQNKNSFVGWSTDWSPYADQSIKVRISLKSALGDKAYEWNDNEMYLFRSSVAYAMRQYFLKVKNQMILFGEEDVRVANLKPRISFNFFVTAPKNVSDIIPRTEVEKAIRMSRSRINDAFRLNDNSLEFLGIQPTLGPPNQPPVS
Sequence of SARS-CoV-2 Spike: ACE2 interaction (Q9BYF1 18-740, one chain of several): as above

As to Ac-NMTQGFWENPGGPTAWDLGK [Seq31], the IC50 was more than 10 µM in experiment [1] (setting [3]); more than 10 µM in experiment [1] (SARS-CoV-2 Spike:ACE2 IC50); more than 10 µM in experiment [2] (ACE2:SARS-CoV-2 Spike IC50); > 10 µM and 25 µM in experiment [2] (setting [4]).

Consider “Ac-K*VGGNYNYK*-Ava-LWRALWRLWRSLWRLLWK-NH2 [Seq13]”, for which the IC50 in experiment [1] (setting [5]) and in experiment [2] (setting [6]) was more than 10 µM in each case.

As for GNYNYLYRL [Seq3], the IC50 in experiment [1] (SARS-CoV-2 Spike:ACE2 IC50) and in experiment [2] (ACE2:SARS-CoV-2 Spike IC50) was more than 10 µM each time.

As for KVGGNYNYL [Seq2], the IC50 in experiment [1] (SARS-CoV-2 Spike:ACE2 IC50) and in experiment [2] (ACE2:SARS-CoV-2 Spike IC50) was more than 10 µM throughout.

In the case of VEGFNCYFP [Seq7], the IC50 in experiment [1] (SARS-CoV-2 Spike:ACE2 IC50) and in experiment [2] (ACE2:SARS-CoV-2 Spike IC50) was more than 10 µM each time.

`CC[C@H](C)[C@H](NC(=O)[C@H](CCCNC(=N)N)NC(=O)[C@H](Cc1ccccc1)NC(=O)[C@H](CC(=O)O)NC(=O)CNC(=O)[C@H](CCCCN)NC(=O)CNC(=O)[C@H](CC(C)C)NC(=O)[C@H](CC(=O)O)NC(=O)[C@H](Cc1c[nH]c2ccccc12)NC(=O)[C@H](C)NC(=O)[C@@H](NC(C)=O)[C@@H](C)O)C(=O)NCCCCCC(=O)N[C@@H](CC(C)C)C(=O)N[C@@H](Cc1c[nH]c2ccccc12)C(=O)N[C@@H](CCCNC(=N)N)C(=O)N[C@@H](C)C(=O)N[C@@H](CC(C)C)C(=O)N[C@@H](Cc1c[nH]c2ccccc12)C(=O)N[C@@H](CCCNC(=N)N)C(=O)N[C@@H](CC(C)C)C(=O)N[C@@H](Cc1c[nH]c2ccccc12)C(=O)N[C@@H](CCCNC(=N)N)C(=O)N[C@@H](CO)C(=O)N[C@@H](CC(C)C)C(=O)N[C@@H](Cc1c[nH]c2ccccc12)C(=O)N[C@@H](CCCNC(=N)N)C(=O)N[C@@H](CC(C)C)C(=O)N[C@@H](CC(C)C)C(=O)N[C@@H](Cc1c[nH]c2ccccc12)C(=O)N[C@@H](CCCCN)C(N)=O` [Seq36]: the IC50 in experiment [1] (SARS-CoV-2 Spike:ACE2 IC50) and in experiment [2] (ACE2:SARS-CoV-2 Spike IC50) was more than 1 µM each time.

Regarding Ac-TAWDLGKGDFRI [Seq29], the half-maximal inhibitory concentration (IC50) in experiment [1] (setting [3]), in experiment [1] (SARS-CoV-2 Spike:ACE2 IC50), in experiment [2] (ACE2:SARS-CoV-2 Spike IC50) and in experiment [2] (setting [4]) was more than 10 µM each time.

Regarding Ac-NMTQGFWENSMLTD [Seq30], the IC50 in experiment [1] (setting [3]), in experiment [1] (SARS-CoV-2 Spike:ACE2 IC50), in experiment [2] (ACE2:SARS-CoV-2 Spike IC50) and in experiment [2] (setting [4]) was more than 10 µM in each case.

In the case of TNGVGYQPY [Seq11], the IC50 in experiment [1] (SARS-CoV-2 Spike:ACE2 IC50) and in experiment [2] (ACE2:SARS-CoV-2 Spike IC50) was more than 1 µM throughout.

As for `CC(C)[C@H](NC(=O)CNC(=O)[C@H](CC(N)=O)NC(=O)[C@@H](N)CS)C(=O)N[C@@H](CCC(=O)O)C(=O)NCC(=O)N[C@@H](Cc1ccccc1)C(=O)N[C@@H](CC(N)=O)C(=O)N[C@@H](CS)C(=O)O` [Seq6] (H-CNGVEGFNC-OH), the IC50 in experiment [1] (SARS-CoV-2 Spike:ACE2 IC50) and in experiment [2] (ACE2:SARS-CoV-2 Spike IC50) was more than 10 µM throughout.

With `CC(C)C[C@H](NC(=O)[C@H](Cc1ccc(O)cc1)NC(=O)[C@H](CC(N)=O)NC(=O)[C@H](Cc1ccc(O)cc1)NC(=O)[C@H](CC(N)=O)NC(=O)CNC(=O)CNC(=O)[C@@H](NC(=O)[C@H](CCCCN)NC(=O)[C@@H](N)CO)C(C)C)C(=O)N[C@@H](Cc1ccc(O)cc1)C(=O)N[C@@H](CCCNC(=N)N)C(=O)O` [Seq1], the half-inhibitory concentration (IC50) in experiment [1] (SARS-CoV-2 Spike:ACE2 IC50) and in experiment [2] (ACE2:SARS-CoV-2 Spike IC50) was more than 10 µM throughout.

GFQPTNGVK [Seq10]: the IC50 in experiment [1] (SARS-CoV-2 Spike:ACE2 IC50) and in experiment [2] (ACE2:SARS-CoV-2 Spike IC50) was more than 10 µM in each case.

Take Ac-EQAKTFLDKFNHEAEDLF [Seq24]: the IC50 was 1.3 µM in experiment [1] (SARS-CoV-2 Spike:ACE2 IC50) and 0.57 ± 0.03 µM in experiment [2] (ACE2:SARS-CoV-2 Spike IC50).

With “Ac-G*NYNYLYRL*-Ava-LWRALWRLWRSLWRLLWK-NH2 [Seq14]”, the IC50 in experiment [1] (setting [5]) and in experiment [2] (setting [6]) was more than 10 µM throughout.

For the compound “Ac-V*EGENCYF*Ava-LWRALWRLWRSLWRLLWK-NH2 [Seq18]”, the IC50 in experiment [1] (setting [5]) and in experiment [2] (setting [6]) was more than 10 µM in each case.

Regarding Ac-KTFLDKFNHEAEDLF [Seq25], the IC50 in experiment [1] (SARS-CoV-2 Spike:ACE2 IC50) was determined as 2.5 µM; in experiment [2] (ACE2:SARS-CoV-2 Spike IC50), 1.9 µM.
